Assay results as given in the supplement of paper PMC11424490.

How the values were obtained:
NCI-H2122 = experiment: combination cScore with sotorasib (Bliss gap around IC50) (%PoC); higher = stronger additive effect
In short: (§1)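 The score averages the gap between expected and measured viability under Bliss independence, taken over a field around the IC50 of each single agent or, where an IC50 was not reached, at the highest concentrations. Viability came from CellTiter-Glo luminescence, normalised to vehicle wells as percent of control and fitted with four-parameter curves. NCI-H2122, NCI-H358 and SW837 cells were dosed in concentration matrices 24 h after seeding and grown for 72 h, or 144 h for SW837.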

SW837 = experiment: as above
In short: as §1

Row | SMILES | combination cScore with sotorasib (NCI-H2122) | combination cScore with sotorasib (SW837)
1 | CO[C@H]1C[C@@H]2CC[C@@H](C)[C@@](O)(O2)C(=O)C(=O)N2CCCC[C@H]2C(=O)O[C@H]([C@H](C)C[C@@H]2CC[C@@H](OCCO)[C@H](OC)C2)CC(=O)[C@H](C)/C=C(\C)[C@@H](O)[C@@H](OC)C(=O)[C@H](C)C[C@H](C)/C=C/C=C/C=C/1C [Everolimus] + C=CC(=O)N1CCN(c2nc(=O)n(-c3c(C)ccnc3C(C)C)c3nc(-c4c(O)cccc4F)c(F)cc23)[C@@H](C)C1 [sotorasib] | 4.54 | -4.84
2 | CN1CC[C@H](c2c(O)cc(O)c3c(=O)cc(-c4ccccc4Cl)oc23)[C@H](O)C1 [Flavopiridol] + C=CC(=O)N1CCN(c2nc(=O)n(-c3c(C)ccnc3C(C)C)c3nc(-c4c(O)cccc4F)c(F)cc23)[C@@H](C)C1 [sotorasib] | 6.54 | 1.46
3 | Nc1nc(F)nc2c1ncn2[C@@H]1O[C@H](CO)[C@@H](O)[C@@H]1O [Fludarabine] + C=CC(=O)N1CCN(c2nc(=O)n(-c3c(C)ccnc3C(C)C)c3nc(-c4c(O)cccc4F)c(F)cc23)[C@@H](C)C1 [sotorasib] | 9.97 | -1.86
4 | O=c1[nH]cc(F)c(=O)[nH]1 [Fluorouracil (5-FU)] + C=CC(=O)N1CCN(c2nc(=O)n(-c3c(C)ccnc3C(C)C)c3nc(-c4c(O)cccc4F)c(F)cc23)[C@@H](C)C1 [sotorasib] | 2.26 | 15.4
5 | C[C@]12CC[C@@H]3c4ccc(O)cc4C[C@@H](CCCCCCCCC[S+]([O-])CCCC(F)(F)C(F)(F)F)[C@H]3[C@@H]1CC[C@@H]2O (some centres undefined) [Fulvestrant] + C=CC(=O)N1CCN(c2nc(=O)n(-c3c(C)ccnc3C(C)C)c3nc(-c4c(O)cccc4F)c(F)cc23)[C@@H](C)C1 [sotorasib] | 8.41 | 1.95
6 | CN(C)c1ccccc1CN1CCCN(Cc2ccccc2N(C)C)C1c1ccncc1 [GANT61] + C=CC(=O)N1CCN(c2nc(=O)n(-c3c(C)ccnc3C(C)C)c3nc(-c4c(O)cccc4F)c(F)cc23)[C@@H](C)C1 [sotorasib] | -3.17 | -1.32
7 | N#CN=C(NCCCCCCOc1ccc(Cl)cc1)Nc1ccncc1 [GMX1778] + C=CC(=O)N1CCN(c2nc(=O)n(-c3c(C)ccnc3C(C)C)c3nc(-c4c(O)cccc4F)c(F)cc23)[C@@H](C)C1 [sotorasib] | -13.8 | 7.36
8 | CCOC(=O)CCNc1cc(N2CCc3ccccc3CC2)nc(-c2ccccn2)n1 [GSK-J4] + C=CC(=O)N1CCN(c2nc(=O)n(-c3c(C)ccnc3C(C)C)c3nc(-c4c(O)cccc4F)c(F)cc23)[C@@H](C)C1 [sotorasib] | -0.59 | -0.52
9 | CC(C)c1cc(-c2n[nH]c(=O)n2-c2ccc3c(ccn3C)c2)c(O)cc1O [Ganetespib] + C=CC(=O)N1CCN(c2nc(=O)n(-c3c(C)ccnc3C(C)C)c3nc(-c4c(O)cccc4F)c(F)cc23)[C@@H](C)C1 [sotorasib] | -1.8 | 7.55
10 | Nc1ccn([C@@H]2O[C@H](CO)[C@@H](O)C2(F)F)c(=O)n1 [Gemcitabine] + C=CC(=O)N1CCN(c2nc(=O)n(-c3c(C)ccnc3C(C)C)c3nc(-c4c(O)cccc4F)c(F)cc23)[C@@H](C)C1 [sotorasib] | 3.14 | 1.12
11 | COc1ncc(-c2nc3c(n2C(C)C)[C@H](c2ccc(Cl)cc2)N(c2cc(Cl)cn(C)c2=O)C3=O)c(OC)n1 [HDM-201] + C=CC(=O)N1CCN(c2nc(=O)n(-c3c(C)ccnc3C(C)C)c3nc(-c4c(O)cccc4F)c(F)cc23)[C@@H](C)C1 [sotorasib] | 1.73 | 7.32
12 | CC(=O)[C@]1(O)Cc2c(O)c3c(c(O)c2[C@@H](O[C@H]2C[C@H](N)[C@H](O)[C@H](C)O2)C1)C(=O)c1ccccc1C3=O [Idarubicin] + C=CC(=O)N1CCN(c2nc(=O)n(-c3c(C)ccnc3C(C)C)c3nc(-c4c(O)cccc4F)c(F)cc23)[C@@H](C)C1 [sotorasib] | 8.08 | 5.83
13 | Cc1ccc(NC(=O)c2ccc(CN3CCN(C)CC3)cc2)cc1Nc1nccc(-c2cccnc2)n1 [Imatinib] + C=CC(=O)N1CCN(c2nc(=O)n(-c3c(C)ccnc3C(C)C)c3nc(-c4c(O)cccc4F)c(F)cc23)[C@@H](C)C1 [sotorasib] | -1.79 | 2.47
14 | CC(C)NC[C@@H](C(=O)N1CCN(c2ncnc3c2[C@H](C)C[C@H]3O)CC1)c1ccc(Cl)cc1 [Ipatasertib] + C=CC(=O)N1CCN(c2nc(=O)n(-c3c(C)ccnc3C(C)C)c3nc(-c4c(O)cccc4F)c(F)cc23)[C@@H](C)C1 [sotorasib] | 12.3 | 11.4
15 | O=C(/C=C\n1cnc(-c2cc(C(F)(F)F)cc(C(F)(F)F)c2)n1)NNc1cnccn1 [KPT-330] + C=CC(=O)N1CCN(c2nc(=O)n(-c3c(C)ccnc3C(C)C)c3nc(-c4c(O)cccc4F)c(F)cc23)[C@@H](C)C1 [sotorasib] | 3.63 | 0.325
16 | CN[C@@H](C)C(=O)N[C@H](C(=O)N1CCC[C@H]1c1nc(C(=O)c2ccc(F)cc2)cs1)C1CCCCC1 [LCL161] + C=CC(=O)N1CCN(c2nc(=O)n(-c3c(C)ccnc3C(C)C)c3nc(-c4c(O)cccc4F)c(F)cc23)[C@@H](C)C1 [sotorasib] | 2.3 | -3.76
17 | COc1ccccc1-c1cc(Nc2cccc(CS(N)(=O)=O)c2)ncn1 [LDC-067] + C=CC(=O)N1CCN(c2nc(=O)n(-c3c(C)ccnc3C(C)C)c3nc(-c4c(O)cccc4F)c(F)cc23)[C@@H](C)C1 [sotorasib] | 5.31 | 11.1
18 | Cc1cn(CCN2CCN(c3ccccc3-c3cc(C#N)cc(C(=O)NCCCN4CCCC4)c3)CC2)c2ccccc12 [LLY-507] + C=CC(=O)N1CCN(c2nc(=O)n(-c3c(C)ccnc3C(C)C)c3nc(-c4c(O)cccc4F)c(F)cc23)[C@@H](C)C1 [sotorasib] | 0.73 | 9.15
19 | Cc1ccc(NC(=O)c2ccnc(C(F)(F)F)c2)cc1-c1cc(OCCO)nc(N2CCOCC2)c1 [LXH-254] + C=CC(=O)N1CCN(c2nc(=O)n(-c3c(C)ccnc3C(C)C)c3nc(-c4c(O)cccc4F)c(F)cc23)[C@@H](C)C1 [sotorasib] | 7.11 | 5.53
20 | Nc1cccc2c1CN(C1CCC(=O)NC1=O)C2=O (centres undefined) [Lenalidomide] + C=CC(=O)N1CCN(c2nc(=O)n(-c3c(C)ccnc3C(C)C)c3nc(-c4c(O)cccc4F)c(F)cc23)[C@@H](C)C1 [sotorasib] | 6.13 | -2.25
21 | O=C(O)c1nn(Cc2ccc(Cl)cc2Cl)c2ccccc12 [Lonidamine] + C=CC(=O)N1CCN(c2nc(=O)n(-c3c(C)ccnc3C(C)C)c3nc(-c4c(O)cccc4F)c(F)cc23)[C@@H](C)C1 [sotorasib] | -0.87 | 2.86
22 | CC[C@H](C)C(=O)O[C@H]1C[C@@H](C)C=C2C=C[C@H](C)[C@H](CC[C@@H]3C[C@@H](O)CC(=O)O3)[C@H]21 [Lovastatin] + C=CC(=O)N1CCN(c2nc(=O)n(-c3c(C)ccnc3C(C)C)c3nc(-c4c(O)cccc4F)c(F)cc23)[C@@H](C)C1 [sotorasib] | -1.83 | -0.46
